Test results as given in article PMC10770970, “Synthesis and cytotoxic activity evaluation of novel imidazopyridine carbohydrazide derivatives” (BMC Chemistry, 2024).
Entries after “also recorded” stand apart in the source; their conditions may differ.

Tests used:
[1] = system: MCF-7 (human breast adenocarcinoma) cells; experiment: MTT reduction cytotoxicity assay, MCF-7; format: cell-based; details: ± S.E.M., max tested 100 µM
Protocol: (§1) All synthesized compounds were evaluated for cytotoxic activity against three human cancer cell lines including MCF-7, HT-29, and K562 by employing an MTT (3-(4,5-dimethylthiazol-2-yl)-2,5-diphenyltetrazolium bromide) assay. […] Cisplatin and doxorubicin were tested as standard chemotherapeutic reference agents.
(§2) MCF-7 (human breast adenocarcinoma), HT-29 (Human colorectal adenocarcinoma), K562 (human chronic myelogenous leukemia), and Vero (kidney epithelial cells of African green monkey) cells were obtained from Iranian Biological Resource Center, Tehran, Iran. MCF-7, K562, and Vero cells were cultured in RPMI 1640 medium containing 10% heat-inactivated fetal bovine serum (FBS) and 1% penicillin/streptomycin, while HT-29 cells were grown in DMEM low glucose, containing 20% heat-inactivated FBS and 1% penicillin/streptomycin. All cells were grown in monolayer culture at 37 °C in a humidified incubator with 5% CO2.
(§3) Assessment of cell viability after exposure of cancer and non-cancer cells to synthetic compounds was performed using the MTT (3-(4,5-dimethylthiazol-2-yl)-2,5-diphenyltetrazolium bromide) reduction assay. Cells were plated in 96-well microplates at densities of 30,000 cells/mL (100 μL in each well). The plates were incubated overnight at 37 °C and then 50 μL of the growth medium was replaced with the same amount of fresh medium containing 3–4 different concentrations of synthesized analogs at the final concentrations of 10–100 µM. Test compounds were initially dissolved in DMSO and then diluted in the growth medium. The upper limit of DMSO concentration in each well was 0.5%. After 72 h of incubation, 80 μL of the solution in each well was substituted with the same quantity of the growth medium comprising of MTT solution at 0.5 mg/mL. Cells were subsequently incubated at 37 °C for 4 h and then 80 μL of the solution in each well was removed. The introduction of DMSO (200 μL) to each well caused the formazan crystals formed inside the viable cells to dissolve. The process lasted 1.5 h (1 h of incubation and 30 min of shaking). The optical absorbance of the final solution was quantified at the wavelength of 570 nm using a microplate reader. IC50 values for all derivatives were calculated using CurveExpert 1.34 software.

[2] = system: HT-29 (Human colorectal adenocarcinoma) cells; experiment: MTT reduction cytotoxicity assay, HT-29; format: cell-based; details: ± S.E.M., max tested 100 µM
Protocol: as §1, §2, §3

[3] = system: K562 (human chronic myelogenous leukemia) cells; experiment: MTT reduction cytotoxicity assay, K562; format: cell-based; details: ± S.E.M., max tested 100 µM
Protocol: as §1, §2, §3

[4] = system: Vero (kidney epithelial cells of African green monkey) cells; experiment: MTT reduction cytotoxicity assay, Vero non-cancer cells; format: cell-based; details: 72 h, ± S.E.M., max tested 100 µM
Protocol: as §1, §2, §3

MCF-7 cells [5] = experiment: Cell cycle analysis by RNase/propidium iodide flow cytometry; format: cell-based, human; details: 48 h; for Percent of MCF-7 cells in Sub G1: control 0.8 ± 0.3; for Percent of MCF-7 cells in S: control 11.7 ± 2.3; for Percent of MCF-7 cells in G2/M: control 26.1 ± 2.9; for Percent of MCF-7 cells in G0/G1: control 61.4 ± 1.4
Protocol: Fig. 3 Effect of compound 7d on cell cycle phase distribution of MCF-7 cells. The analysis of cells in different phases of the cell cycle was performed using propidium iodide (PI)-based assessment of cell cycle by flow cytometry. […] The cells were then collected, washed with PBS and fixed with 70% ethanol overnight at −20 °C. After 24 h, the fixed cells were incubated in a PI-RNase solution at room temperature and 10,000 cells were analyzed using a FACS Calibur flow cytometer (BD Biosciences)
The analysis of cells in different phases of the cell cycle and the sub-G1 phase were monitored using RNase/propidium iodide (PI)-based assessment of the cell cycle by flow cytometry. […] At the end of the incubation, the culture media in each well were collected and the cells were washed with PBS. Then, they were fixed with 70% ethanol overnight at −20 °C. After 24 h, the fixed cells were washed with PBS and subsequently stained with DNA staining solution (PI 20 μg/mL and RNase 200 μg/mL) at room temperature for 30 min in the dark. Ten thousand cells of each sample were analyzed using a FACS Calibur flow cytometer (BD Biosciences) and the percentage of the cells in sub-G1, G0/G1, S, and G2/M phases were calculated using CellQuest (BD, USA) software.

MCF-7 cells [6] = experiment: Apoptosis by Hoechst 33,258 staining; format: cell-based, human; details: 100 µM, 72 h
Protocol: This also further adds to the potential value of this derivative as an anticancer agent, as it is known that apoptosis evasion is an important hallmark of cancer, and apoptosis induction capacity is an important feature of any successful therapeutic agent.
Fig. 4 Measurement of apoptosis induced by Hoechst 33,258 staining assay. […] The cells were then stained with 2.5 µg/ml Hoechst 33,258 after being fixed with 4% cold paraformaldehyde (PFA) and imaged using a fluorescence microscope (Magnification: 500 X). Apoptotic cells as featured by nuclear shrinkage, fragmentation, condensation, etc., are shown by red arrows
Hoechst 33,258 staining assay was used to determine apoptosis induction in cancer cells. Hoechst 33,258 is a fluorescent dye that binds to minor grooves in DNA and is commonly used to determine the characteristic features of apoptosis including condensation and fragmentation, etc. in the cell’s nuclei. MCF-7 cells were cultured in 6-well plates at a density of 10^5 cells/ml and exposed to 100 µM of compound 7d for 72 h. The growth medium was completely removed at the end of the incubation time and the cells were fixed with 1 ml of 4% cold freshly prepared paraformaldehyde (PFA) and incubated for 20 min. […] In the end, the cells were washed twice with PBS and imaged with a fluorescence microscope (Nikon model DS-Ri2).

Row | Structure (SMILES) | melting point | IC50 ([1]; Homo sapiens, MCF7, 72 h) | IC50 ([2]; Homo sapiens, HT-29, 72 h) | IC50 ([3]; Homo sapiens, K562, 72 h) | IC50 ([4]; Chlorocebus sabaeus, Vero) | other results
1 | Cc1ccc(C=NNC(=O)c2cn3ccccc3n2)cc1 [Compound 7e, N´-(4-methylbenzylidene)imidazo[1,2-a]pyridine-2-carbohydrazide] | 180 to 182 °C | > 100 µM | > 100 µM | > 100 µM | – | –
2 | O=C(NN=Cc1ccccc1)c1cn2ccccc2n1 [Compound 7a, N´-benzylidene imidazo[1,2-a]pyridine-2-carbohydrazide] | 257 to 259 °C | > 100 µM | > 100 µM | > 100 µM | – | –
3 | O=C(NNCc1cn(Cc2ccccc2)nn1)c1cn2ccccc2n1 [Compound 11a, N´-((1-benzyl-1H-1,2,3-triazol-4-yl)methyl)imidazo[1,2-a]pyridine-2-carbohydrazide] | – | 40.3 ± 2.9 µM | 61.2 ± 6.3 µM | > 100 µM | > 100 µM | IC50 Vero [4]: completely inactive
4 | O=C(NN=Cc1ccc(Br)cc1)c1cn2ccccc2n1 [Compound 7d, N´-(4-bromobenzylidene)imidazo[1,2-a]pyridine-2-carbohydrazide] | 230 to 232 °C | 22.6 ± 1 µM | 13.4 ± 1.3 µM | > 100 µM | > 100 µM | IC50 Vero [4]: completely inactive; also recorded: no toxic effect; Percent of MCF-7 cells in Sub G1 (MCF-7 cells [5]; 7d 20 µM): 0.8 ± 0.6%; Percent of MCF-7 cells in S (MCF-7 cells [5]; 7d 20 µM): 11.9 ± 5.7%; Percent of MCF-7 cells in G2/M (MCF-7 cells [5]; 7d 20 µM): 23.3 ± 10.0%; Percent of MCF-7 cells in G0/G1 (MCF-7 cells [5]; 7d 20 µM): 64.2 ± 7.6%; Percent of MCF-7 cells in Sub G1 (MCF-7 cells [5]; 7d 50 µM): 0.8 ± 0.6%; Percent of MCF-7 cells in S (MCF-7 cells [5]; 7d 50 µM): 11.1 ± 4.9%; Percent of MCF-7 cells in G2/M (MCF-7 cells [5]; 7d 50 µM): 21.1 ± 8.8%; Percent of MCF-7 cells in G0/G1 (MCF-7 cells [5]; 7d 50 µM): 67.0 ± 8.4%; Percent of MCF-7 cells in Sub G1 (MCF-7 cells [5]; 7d 100 µM): 1.1 ± 0.9%; Percent of MCF-7 cells in S (MCF-7 cells [5]; 7d 100 µM): 10.2 ± 5.3%; Percent of MCF-7 cells in G2/M (MCF-7 cells [5]; 7d 100 µM): 21.5 ± 7.2%; Percent of MCF-7 cells in G0/G1 (MCF-7 cells [5]; 7d 100 µM): 67.2 ± 7.5%; Effect on cell cycle phase distribution (in words) (MCF-7 cells [5]; MCF-7 cells): dose-dependent increase in the G0/G1 phase and a concomitant decrease in the G2/M phase; also recorded: increased the number of MCF-7 cells in the G0/G1 phase; also recorded: increase the number of cancer cells in the G0/G1 phase; Apoptosis induction (in words) (MCF-7 cells [6]): induce apoptosis; also recorded: clear signs of apoptosis including nuclear condensation and fragmentation
5 | N.N.[Cl][Pt][Cl] [Cisplatin, reference compound] | – | – | – | – | – | IC50 ([1]; 72 h): 25.9 ± 6.9 µM; IC50 ([2]; 72 h): 22.4 ± 5.8 µM; IC50 ([3]; 72 h): 9.4 ± 0.5 µM; IC50 [4]: 10.6 ± 1.3 µM
6 | NNC(=O)c1cn2ccccc2n1 [Compound 5, imidazo[1,2-a]pyridine-2-carbohydrazide] | – | > 100 µM | > 100 µM | > 100 µM | – | –
7 | O=C(NN=Cc1ccc(F)cc1)c1cn2ccccc2n1 [Compound 7b, N´-(4-fluorobenzylidene)imidazo[1,2-a]pyridine-2-carbohydrazide] | 234 to 236 °C | > 100 µM | > 100 µM | > 100 µM | – | –
8 | O=C(NN=Cc1ccc(Cl)cc1)c1cn2ccccc2n1 [Compound 7c, N´-(4-chlorobenzylidene)imidazo[1,2-a]pyridine-2-carbohydrazide] | 226 to 228 °C | 64.8 ± 11.8 µM | 85.4 ± 10.3 µM | > 100 µM | 65.6 ± 4.5 µM | –
9 | C#CCNNC(=O)c1cn2ccccc2n1 [Compound 9, N´-(Prop-2-yn-1-yl) imidazo[1,2-a]pyridine-2-carbohydrazide] | 142 to 144 °C | 70.1 ± 5.3 µM | 21.4 ± 1.9 µM | 23.7 ± 2.3 µM | 73 ± 9.9 µM | –
10 | COc1cccc2c1C(=O)c1c(O)c3c(c(O)c1C2=O)C[C@@](O)(C(=O)CO)C[C@@H]3O[C@H]1C[C@H](N)[C@H](O)[C@H](C)O1 [Doxorubicin, reference compound] | – | – | – | – | 2.6 ± 0.3 µM | –

Continued, in another order:

Row | melting point | Structure (SMILES) | IC50 ([1]; Homo sapiens, MCF7, 72 h) | IC50 ([2]; Homo sapiens, HT-29, 72 h) | IC50 ([3]; Homo sapiens, K562, 72 h) | IC50 ([4]; Chlorocebus sabaeus, Vero) | other results
11 | 186 to 188 °C | O=C(NNCc1cn(Cc2ccc(Br)cc2)nn1)c1cn2ccccc2n1 [Compound 11d, N´-((1-(4-bromobenzyl)-1H-1,2,3-triazol-4-yl)methyl)imidazo[1,2-a]pyridine-carbohydrazide] | > 100 µM | 83.9 µM | > 100 µM | > 100 µM | IC50 MCF-7 ([1]; 72 h): no activity; IC50 ([2]; 72 h): 83.8 ± 13.1 µM; IC50 K562 ([3]; 72 h): no activity; IC50 Vero [4]: completely inactive
12 | 205 to 207 °C | O=C(NNCc1cn(Cc2ccc(F)cc2)nn1)c1cn2ccccc2n1 [Compound 11b, N´-((1-(4-fluorobenzyl)-1H-1,2,3-triazol-4-yl)methyl)imidazo[1,2-a]pyridine-carbohydrazide] | > 100 µM | > 100 µM | > 100 µM | – | –
13 | 140 to 142 °C | Cc1ccc(Cn2cc(CNNC(=O)c3cn4ccccc4n3)nn2)cc1 [Compound 11e, N´-((1-(4-methylbenzyl)-1H-1,2,3-triazol-4-yl)methyl)imidazo[1,2-a]pyridine-carbohydrazide] | > 100 µM | > 100 µM | > 100 µM | – | –
14 | 193 to 195 °C | O=C(NNCc1cn(Cc2ccc(Cl)cc2)nn1)c1cn2ccccc2n1 [Compound 11c, N´-((1-(4-chlorobenzyl)-1H-1,2,3-triazol-4-yl)methyl)imidazo[1,2-a]pyridine-carbohydrazide] | > 100 µM | > 100 µM | > 100 µM | – | –
